From patent US20230165252A1, “ACTIVE COMPOUND COMBINATIONS” (Bayer Aktiengesellschaft, priority 2020, published 2023)
Like-named read-outs stand apart in the source and are kept apart here.

Assays:
Assay type in all cases: cell-based
Botrytis cinerea = test: in vitro-Test with Botrytis cinerea (microtiter growth inhibition); details: applied alone
In short: (§1)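 Photometric extinction at 620 nm, measured at setup and again 3-5 days later, gives growth inhibition; 0% efficacy equals untreated-control growth, 100% means no growth. Compounds were applied in methanol/emulsifier, solvent evaporated, then spore or mycelium suspension in potato dextrose broth added; incubation at 20° C., 85% RH.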

Parastagonospora nodorum = test: in vitro-Test with Parastagonospora nodorum (microtiter growth inhibition); details: for inhibition of growth at 0.004 ppm / inhibition of growth at 0.02 ppm / inhibition of growth at 0.1 ppm / inhibition of growth at 0.5 ppm: Parastagonospora nodorum, compound alone, read-out: Efficacy %
In short: as §1

[1] = test system: Ustilago segetum var. avenae; test: in vitro-Test with Ustilago segetum var. avenae (microtiter growth inhibition); details: read-out: Efficacy %; for inhibition of growth at 0.02 ppm: 0.020 ppm
In short: as §1

Alternaria alternate = test: in vitro-Test with Alternaria alternate (microtiter growth inhibition); details: Alternaria
In short: as §1

Fusarium culmorum = test: in vitro-Test with Fusarium culmorum (microtiter growth inhibition); details: Fusarium culmorum, read-out: Efficacy; for inhibition of growth at 0.02 ppm: 0.020 ppm
In short: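 Fungal spores or mycelium in liquid potato dextrose medium are incubated on wells pre-coated with evaporated test material at 20° C. and 85% humidity. Absorbance at 620 nm is taken initially and 3-5 days post-application; efficacy (%) is scaled from untreated control growth (0%) to no growth (100%).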

Diaporthe citri = test: in vitro-Test with Diaporthe citri (microtiter growth inhibition); details: Diaporthe citri, read-out: Efficacy; for inhibition of growth at 0.02 ppm: 0.020 ppm
In short: as §1

[2] = test system: Colletotrichum lindemuthianum; test: in vitro-Test with Colletotrichum lindemuthianum (microtiter growth inhibition); details: Colletotrichum lindemuthianum, read-out: Efficacy %; for inhibition of growth at 0.004 ppm: applied alone at 0.004 ppm; for inhibition of growth at 0.02 ppm: applied alone at 0.020 ppm; for inhibition of growth at 0.1 ppm: applied alone at 0.1 ppm; for inhibition of growth at 0.5 ppm: applied alone at 0.5 ppm
Protocol: The degree of efficacy expressed in % is denoted: 0% means an efficacy, which corresponds to that of the control, while an efficacy of 100% means that no disease is observed.
If the actual fungicidal activity exceeds the calculated value, then the activity of the combination is super-additive, i.e. a synergistic effect exists. In this case, the efficacy, which was actually observed, must be greater than the value for the expected efficacy (E), that was calculated from the abovementioned formula.
Example: In Vitro-Test with Fungal Microorganisms
Wells of 96-well microtiter plates are filled with 10 μl of a preparation of test compound or compound combination in methanol+emulsifier alkylaryl-polyglycol-ether. Thereafter, the solvent is evaporated in a hood. At the next step, 100 μl of liquid potato dextrose medium is given into each well, that has been amended with an appropriate concentration of spores or mycelium suspension of the test fungus.
With the aid of a photometer, the extinction in all wells is measured at the wavelength of 620 nm.
The microtiter plates are incubated at 20° C. and 85% relative humidity. The inhibition of growth is determined again photometrically 3-5 days after the application. Efficacy is calculated in relation to the untreated control, 0% efficacy means fungal growth as high as in untreated control while 100% efficacy means no fungal growth is measured.

Cordana musae = test: in vitro-Test with Cordana musae (microtiter growth inhibition); details: Neocordana musae, single substance, read-out: Efficacy; for inhibition of growth at 0.02 ppm: 0.020 ppm
In short: as §1

Cercospora beticola = test: in vitro-Test with Cercospora beticola (microtiter growth inhibition); details: Cercospora beticola, read-out: Efficacy %
In short: as §1

[3] = 0.02 ppm, alone, read-out: Efficacy %
[4] = applied alone, read-out: Efficacy

Compound | inhibition of growth at 0.004 ppm (Parastagonospora nodorum; 0.004 ppm) | inhibition of growth at 0.02 ppm (Parastagonospora nodorum; 0.020 ppm) | inhibition of growth at 0.1 ppm (Parastagonospora nodorum; 0.1 ppm) | inhibition of growth at 0.5 ppm (Parastagonospora nodorum; 0.5 ppm) | inhibition of growth at 0.004 ppm (Fusarium culmorum) | inhibition of growth at 0.02 ppm (Fusarium culmorum) | inhibition of growth at 0.1 ppm (Fusarium culmorum) | inhibition of growth at 0.5 ppm (Fusarium culmorum) | inhibition of growth at 0.004 ppm (Diaporthe citri; applied alone) | inhibition of growth at 0.02 ppm (Diaporthe citri; applied alone) | inhibition of growth at 0.1 ppm (Diaporthe citri; applied alone) | inhibition of growth at 0.5 ppm (Diaporthe citri; applied alone) | inhibition of growth at 0.004 ppm [2] | inhibition of growth at 0.02 ppm [2] | inhibition of growth at 0.1 ppm [2] | inhibition of growth at 0.5 ppm [2] | inhibition of growth at 0.004 ppm (Cordana musae) | inhibition of growth at 0.02 ppm (Cordana musae) | inhibition of growth at 0.1 ppm (Cordana musae) | inhibition of growth at 0.5 ppm (Cordana musae) | further results
Cc1ccc(C(F)(F)CNC(=O)c2c(Oc3cccc(C4CC4)c3F)nnc(Cl)c2C)c(C)c1 [Compound I-655, 6-chloro-3-(3-cyclopropyl-2-fluorophenoxy)-N-[2-(2,4-dimethylphenyl)-2,2-difluoroethyl]-5-methylpyridazine-4-carboxamide] | 0% | 0% | 41% | 100% | 0% | 7% | 7% | 19% | 0% | 0% | 13% | 100% | 0% | 20% | 98% | 100% | 2% | 4% | 100% | 100% | Efficacy (Botrytis cinerea; 0.004 ppm): 0%; Efficacy (Botrytis cinerea; 0.020 ppm): 0%; Efficacy (Botrytis cinerea; 0.1 ppm): 58%; Efficacy (Botrytis cinerea; 0.5 ppm): 100%; Efficacy (Parastagonospora nodorum; 0.004 ppm): 0%; Efficacy (Parastagonospora nodorum; 0.020 ppm): 0%; Efficacy (Parastagonospora nodorum; 0.1 ppm): 41%; Efficacy (Parastagonospora nodorum; 0.5 ppm): 100%; inhibition of growth at 0.004 ppm ([1]; compound alone): 7%; inhibition of growth at 0.02 ppm ([1]; compound alone): 6%; inhibition of growth at 0.1 ppm ([1]; compound alone): 0%; inhibition of growth at 0.5 ppm ([1]; compound alone): 0%; inhibition of growth at 0.004 ppm (Alternaria alternate; alone, read-out: Efficacy %): 0%; inhibition of growth at 0.02 ppm (Alternaria alternate; [3]): 0%; inhibition of growth at 0.1 ppm (Alternaria alternate; alone, read-out: Efficacy %): 20%; inhibition of growth at 0.5 ppm (Alternaria alternate; alone, read-out: Efficacy %): 100%
Cc1ccc(C(F)(F)CNC(=O)c2c(Oc3cccc(C4CC4)c3F)nnc(Cl)c2C)c(Cl)c1 [Compound I-746, 6-chloro-N-[2-(2-chloro-4-methylphenyl)-2,2-difluoroethyl]-3-(3-cyclopropyl-2-fluoro-phenoxy)-5-methylpyridazine-4-carboxamide] | 0% | 0% | 31% | 100% | 0% | 0% | 0% | 0% | 0% | 0% | 2% | 51% | 0% | 14% | 100% | 100% | 0% | 10% | 79% | 100% | inhibition of growth at 0.004 ppm ([1]; compound alone): 0%; inhibition of growth at 0.02 ppm ([1]; compound alone): 2%; inhibition of growth at 0.1 ppm ([1]; compound alone): 0%; inhibition of growth at 0.5 ppm ([1]; compound alone): 0%; inhibition of growth at 0.004 ppm ([1]; single compound): 0%; inhibition of growth at 0.02 ppm ([1]; single compound): 2%; inhibition of growth at 0.1 ppm ([1]; single compound): 0%; inhibition of growth at 0.5 ppm ([1]; single compound): 0%; inhibition of growth at 0.004 ppm (Alternaria alternate; alone, read-out: Efficacy %): 0%; inhibition of growth at 0.02 ppm (Alternaria alternate; [3]): 0%; inhibition of growth at 0.1 ppm (Alternaria alternate; alone, read-out: Efficacy %): 22%; inhibition of growth at 0.5 ppm (Alternaria alternate; alone, read-out: Efficacy %): 100%; inhibition of growth at 0.004 ppm (Cercospora beticola; alone, 0.004 ppm): 0%; inhibition of growth at 0.02 ppm (Cercospora beticola; alone, 0.020 ppm): 5%; inhibition of growth at 0.1 ppm (Cercospora beticola; alone, 0.1 ppm): 4%; inhibition of growth at 0.5 ppm (Cercospora beticola; alone, 0.5 ppm): 26%
Cc1ccc(C(F)(F)CNC(=O)c2c(Oc3cccc(C4CC4)c3F)nnc(Cl)c2C)cc1C [Compound I-749, 6-chloro-3-(3-cyclopropyl-2-fluorophenoxy)-N-[2-(3,4-dimethylphenyl)-2,2-difluoroethyl]-5-methylpyridazine-4-carboxamide] | 0% | 0% | 92% | 100% | 0% | 10% | 11% | 18% | 0% | 0% | 0% | 100% | 1% | 19% | 100% | 100% | 0% | 64% | 100% | 100% | inhibition of growth at 0.004 ppm ([1]; single compound): 1%; inhibition of growth at 0.02 ppm ([1]; single compound): 0%; inhibition of growth at 0.1 ppm ([1]; single compound): 0%; inhibition of growth at 0.5 ppm ([1]; single compound): 0%; inhibition of growth at 0.004 ppm (Alternaria alternate; [4]): 0%; inhibition of growth at 0.02 ppm (Alternaria alternate; applied alone, 0.020 ppm, read-out: Efficacy): 14%; inhibition of growth at 0.1 ppm (Alternaria alternate; [4]): 24%; inhibition of growth at 0.5 ppm (Alternaria alternate; [4]): 100%; inhibition of growth at 0.004 ppm (Cercospora beticola; alone, 0.004 ppm): 0%; inhibition of growth at 0.02 ppm (Cercospora beticola; alone, 0.020 ppm): 0%; inhibition of growth at 0.1 ppm (Cercospora beticola; alone, 0.1 ppm): 8%; inhibition of growth at 0.5 ppm (Cercospora beticola; alone, 0.5 ppm): 22%; inhibition of growth at 0.004 ppm (Cercospora beticola; applied alone at 0.004 ppm): 0%; inhibition of growth at 0.02 ppm (Cercospora beticola; applied alone at 0.020 ppm): 0%; inhibition of growth at 0.1 ppm (Cercospora beticola; applied alone at 0.1 ppm): 8%; inhibition of growth at 0.5 ppm (Cercospora beticola; applied alone at 0.5 ppm): 22%; inhibition of growth at 0.004 ppm (Diaporthe citri): 0%; inhibition of growth at 0.02 ppm (Diaporthe citri): 0%; inhibition of growth at 0.1 ppm (Diaporthe citri): 0%; inhibition of growth at 0.5 ppm (Diaporthe citri): 100%
